Bridges are numbered along the chain shown (N, C = ends).

The values that follow come from US10562935B2, “Stapled peptides and uses thereof” (London Health Sciences Centre Research Inc., priority 2015, dated 2020).

Test [1] is described as follows: Direct HA-binding ELISA of biotinylated peptides on HA coated plates (Example 4). The arrangement: key to HA binding: absorbance (color) read at 450 nm. The following applies: for HA binding: as repeated in tables 16, 18, 20; for HA direct binding (OD): optical density, summary tables 15, 17, 19. As for the experimental part: Each of these peptides was biotinylated at its amino-terminus, and an AEEA spacer was included to separate the peptide sequence from the biotin molecule.
HA coated plates were purchased (ECHELON). Peptides were dissolved in 2 mM PBS to constant molarity, aliquoted and stored at −20° C. until used in assays. 7 kDa biotin-labeled RHAMM (SEQ ID NO: 1) was synthesized and used as a positive control in these assays. Biotin labeled peptides were added to the HA coated wells (n=3 replicates/peptide) at either 0.8 or 0.08 μM and then incubated with shaking overnight at 4° C. Wells were washed free of excess unbound peptides using 200 μl PBS (4 times). 100 μl of Streptavidin-HRP was then added to each well and the plate was incubated at room temperature for 1 hr. The plate was then washed with 200 μl PBS/well 4 times and TMB Liquid Substrate System for ELISA (Sigma) was added to each well, incubated for 5-10 min at room temperature and color read at 450 nm Plate Reader (BioTek, SYNERGY H4, Hybrid Reader).
Direct HA-binding results for the biotinylated equivalents of compounds 132 and 150-161 are show in FIG. 39, and results for compounds 265-268 and 275-278 are shown in FIG. 40.

Test [2] in a line: Function blocking score: total percent inhibition over migration, invasion, inflammation and fibrosis assays divided by number of assays. Type of test: cell-based. The settings on record: for Function blocking score (FBS): total percent inhibition for all assays tested divided by number of assays. The method, then:
As documented in the Examples hereinabove, a variety of cyclized peptides were produced that contained the HA-binding domain 1 (HABD1), HA-binding domain 2 (HABD2), or both HABD1 and HABD2. These peptides were evaluated for helicity, direct HA binding and in a number of cell-based bioassays (effects on migration, invasion, NFkB activation, and TGFβ1 production) that are relevant to inflammation and fibrosis. The relationships amongst helicity, HA-binding, and biofunction were evaluated. Peptides were divided into three groups for this analysis: (1) peptides containing HABD1 (“HABD1”); (2) peptides containing HABD2 (“HABD2”); and peptides containing most or all of HABD1 and all of HABD2 (“HABD1+HABD2”). R^2 values were calculated to quantify the relationships between helicity, HA-binding, and biofunction were evaluated.
The results of this analysis for the HABD1 peptides are shown below in Tables 15 and 16. Table 16 provides a function blocking scores for each of the tested peptides and provides R^2 values showing the relationship between HA binding and helicity (“HA binding vs. CD”), HA binding and function-blocking score (“HA binding vs. FBS”) and helicity vs. function-blocking score (“CD vs. FBS”). The same type of summaries are provided for the HABD2 peptides in Tables 17 and 18 below, and for the HABD1+HABD2 peptides in Tables 19 and 20 below.
Function blocking scores were calculated as the total percent inhibition achieved by the peptide for all assays the peptides were tested in, divided by the number of assays. Assays included migration, invasion, inflammation and fibrosis assays. Not all peptides were tested all of the assays. All peptides were included for deriving R^2 values (Pearson's formula).

For test [3], the system named is RHAMM-overexpressing (LR21) cells. Kind of test: Cell migration assay (Boyden chamber, Chemicon ECM510). Format: cell-based. The settings on record: for Migration (% inhib.): % inhibition relative to positive control; for inhibition of cell migration (in words): 10 ng/mL peptide, 20 hours, compared to 30% serum control. The method, then:
Compounds 132, 133, 150-152, 156-161, 265-269, 275, 277, and 278 were evaluated for their ability to inhibit cell migration. Cell migration assays were performed using Chemicon Assay Kits (ECM510 (Migration); Billerica, Mass., USA) according to the manufacturer's protocol. Briefly, sub-confluent cultures of RHAMM-overexpressing (LR21) cells were serum starved overnight. 7.5×10^4 cells were then plated in the upper chamber of a Boyden chamber. either in the presence or absence of 10 ng/mL of peptide. 30% fetal bovine serum in DMEM was used as the chemo-attractant in the lower chamber. The number of cells that had crossed the membrane after 20 hours was assessed using the CYQUANT GR Dye and lysis buffer solution provided in the kit. Fluorescence was measured with a fluorescent plate reader using a 480/520 nm filter set.
Values are the mean and SDM of n=3 replicates. *p<0.05, **p<0.01. All statistics compare to 30% serum control. In FIGS. 41-43, where bars are labeled with two compound numbers (“133/150” and “135/152”) this means that the data were pooled for the indicated compounds, i.e., for the non-acetylated and acetylated versions of the indicated peptides.

Test [4] deals with IMR90 human fetal lung fibroblasts. Nature of the test: Fibrosis assay: active TGF-β levels in TGF-β treated fibroblasts (ELISA). Format: cell-based. The settings on record: % inhibition relative to positive control. As for the experimental part: Compounds 132, 133, 135, 150, 152, 157-161, 265-269, 275, 277, and 278 were evaluated for their ability to inhibit fibrosis. IMR90 human fetal lung fibroblasts were obtained from ATCC and maintained in DMEM supplemented with 10% fetal bovine serum. In order to examine the effect of peptides on myofibroblast differentiation, 80% confluent cultures were serum starved overnight prior to addition of TGF-β (2 ng/mL, R&D Systems). Cells were treated with TGF-β for 24 hours prior to addition of peptides (10 ng/mL). 48 hours after addition of peptides, culture supernatants were collected and levels of active TGF-β measured using commercially available TGF-β ELISA (Quantikine, R&D Systems).
Values are the Mean and SDM n=3 replicates. *p<0.05, **p<0.01, ***p<0.001 when compared to the +TGFβ1 control. In FIG. 47, where bars are labeled with two compound numbers (“133/150” and “135/152”) this means that the data were pooled for the indicated compounds, i.e., for the non-acetylated and acetylated versions of the indicated peptides.

The test system of test [5] is RHAMM-overexpressing (LR21) cells. Kind of test: Cell invasion assay (Boyden chamber with MATRIGEL, Chemicon ECM555). Type of test: cell-based. The settings on record: for Invasion (% inhib.): % inhibition relative to positive control, 10 ng/mL of peptide; for inhibition of cellular invasion (in words): 10 ng/mL peptide, 20 hours, compared to 30% serum control. The method, then: Compounds 132, 133, 135, 150-153, 156, 265-269, and 275-278 were evaluated for their ability to inhibit cellular invasion. Invasion assays were performed using Chemicon Assay Kits ECM555 (Invasion); Billerica, Mass., USA) according to the manufacturer's protocol. Invasion assays are performed in an identical manner as the migration assays described above in Example 5, except that cells are required to invade through a layer of extracellular matrix (MATRIGEL) coating the filter that separates the upper and lower Boyden chambers. Briefly, sub-confluent cultures of RHAMM-overexpressing (LR21) cells were serum starved overnight before plating 7.5×10^4 cells in the upper chamber of a Boyden chamber either in the presence or absence of 10 ng/mL of peptide. 30% fetal bovine serum in DMEM was used as the chemo-attractant in the lower chamber. The number of cells that had crossed the membrane after 20 hours was assessed using the CYQUANT® GR Dye and lysis buffer solution provided in the kit. Fluorescence was measured with a fluorescent plate reader using 480/520 nm filter set.
Values the mean and SDM of n=3 replicates. *p<0.05, **p<0.01, ***p<0.001 All statistics compared to 30% serum control. In FIG. 49, where bars are labeled with two compound numbers (“152/135”) this means that the data were pooled for the indicated compound, i.e., for the non-acetylated and acetylated versions of the indicated peptide.

As to “Ac-(cyclo-7,11)-NLKQKI[EHVVK]LKDE-NH2 (Ac-NLKQKIEHVVKLKDE-NH2; lactam 7-11; SMILES CC[C@H](C)[C@H](NC(=O)[C@H](CCCCN)NC(=O)[C@H](CCC(N)=O)NC(=O)[C@H](CCCCN)NC(=O)[C@H](CC(C)C)NC(=O)[C@H](CC(N)=O)NC(C)=O)C(=O)N[C@H]1CCC(=O)NCCCC[C@@H](C(=O)N[C@@H](CC(C)C)C(=O)N[C@@H](CCCCN)C(=O)N[C@@H](CC(=O)O)C(=O)N[C@@H](CCC(=O)O)C(N)=O)NC(=O)[C@H](C(C)C)NC(=O)[C@H](C(C)C)NC(=O)[C@H](Cc2c[nH]cn2)NC1=O) [Compound 160]”, in test [1], the HA binding is reported as 0.004 and the “HA direct binding (OD)” value turned out to be 0.004 OD. In addition, the “Function blocking score (FBS)” value in test [2] was 0. Also, the “Migration (% inhib.)” value in test [3] is 0 % inhib. For the same substance, the “Fibrosis (% inhib.)” value in test [4] is reported as 0 % inhib.
Take “Ac-(cyclo-5,9)-VSKL[ESQLK]KRKQN-NH2 (Ac-VSKLESQLKKRKQN-NH2; lactam 5-9; SMILES CC(=O)N[C@H](C(=O)N[C@@H](CO)C(=O)N[C@@H](CCCCN)C(=O)N[C@@H](CC(C)C)C(=O)N[C@H]1CCC(=O)NCCCC[C@@H](C(=O)N[C@@H](CCCCN)C(=O)N[C@@H](CCCNC(=N)N)C(=O)N[C@@H](CCCCN)C(=O)N[C@@H](CCC(N)=O)C(=O)N[C@@H](CC(N)=O)C(N)=O)NC(=O)[C@H](CC(C)C)NC(=O)[C@H](CCC(N)=O)NC(=O)[C@H](CO)NC1=O)C(C)C) [Compound 151]”: in test [1], the HA binding came out at 0.01 and the “HA direct binding (OD)” value worked out at 0.01 OD. Besides, the “Function blocking score (FBS)” value in test [2] came to 20. In test [5], the “Invasion (% inhib.)” value stood at 0 % inhib. For the same substance, in test [3], the “inhibition of cell migration (in words)” value is reported as “significantly inhibit cell migration” and the “Migration (% inhib.)” value was determined as 59 % inhib.
Consider “Ac-(cyclo-6,10)-VSKLR[EQLVK]RKQN-NH2 (Ac-VSKLREQLVKRKQN-NH2; lactam 6-10; SMILES CC(=O)N[C@H](C(=O)N[C@@H](CO)C(=O)N[C@@H](CCCCN)C(=O)N[C@@H](CC(C)C)C(=O)N[C@@H](CCCNC(=N)N)C(=O)N[C@H]1CCC(=O)NCCCC[C@@H](C(=O)N[C@@H](CCCNC(=N)N)C(=O)N[C@@H](CCCCN)C(=O)N[C@@H](CCC(N)=O)C(=O)N[C@@H](CC(N)=O)C(N)=O)NC(=O)[C@H](C(C)C)NC(=O)[C@H](CC(C)C)NC(=O)[C@H](CCC(N)=O)NC1=O)C(C)C) [Compound 152]”, for which the HA binding in test [1] is on record as 0.005. Further, the “direct HA binding (in words)” value in test [1] (biotinylated equivalents of the named compounds, 0.8 or 0.08 μM, vs PBS only control) is listed as “bound poorly to HA”. In test [2], the “function blocking (in words)” value is “strong function blocker” and the “Function blocking score (FBS)” value turned out to be 47. Also, the “inhibition of cellular invasion (in words)” value in test [5] was “significantly inhibited cellular invasion”. Further, the “inhibition of cell migration (in words)” value in test [3] is recorded as “significantly inhibit cell migration”.
Take “Ac-(cyclo-8,12)-NLKQKIK[EVVKK]KDE-NH2 (Ac-NLKQKIKEVVKKKDE-NH2; lactam 8-12; SMILES CC[C@H](C)[C@H](NC(=O)[C@H](CCCCN)NC(=O)[C@H](CCC(N)=O)NC(=O)[C@H](CCCCN)NC(=O)[C@H](CC(C)C)NC(=O)[C@H](CC(N)=O)NC(C)=O)C(=O)N[C@@H](CCCCN)C(=O)N[C@H]1CCC(=O)NCCCC[C@@H](C(=O)N[C@@H](CCCCN)C(=O)N[C@@H](CC(=O)O)C(=O)N[C@@H](CCC(=O)O)C(N)=O)NC(=O)[C@H](CCCCN)NC(=O)[C@H](C(C)C)NC(=O)[C@H](C(C)C)NC1=O) [Compound 161]”: in test [1], the HA binding stood at 0.009 and the “HA direct binding (OD)” value is 0.009 OD. Moreover, the “Function blocking score (FBS)” value in test [2] turned out to be 22. Also, in test [3], the “inhibition of cell migration (in words)” value is given as “significantly inhibit cell migration” and the “Migration (% inhib.)” value is reported as 36 % inhib. In addition, the “Fibrosis (% inhib.)” value in test [4] came to 38 % inhib.
Take “Ac-(cyclo-7,11)-VSKLRS[ELVKK]KQN-NH2 (Ac-VSKLRSELVKKKQN-NH2; lactam 7-11; SMILES CC(=O)N[C@H](C(=O)N[C@@H](CO)C(=O)N[C@@H](CCCCN)C(=O)N[C@@H](CC(C)C)C(=O)N[C@@H](CCCNC(=N)N)C(=O)N[C@@H](CO)C(=O)N[C@H]1CCC(=O)NCCCC[C@@H](C(=O)N[C@@H](CCCCN)C(=O)N[C@@H](CCC(N)=O)C(=O)N[C@@H](CC(N)=O)C(N)=O)NC(=O)[C@H](CCCCN)NC(=O)[C@H](C(C)C)NC(=O)[C@H](CC(C)C)NC1=O)C(C)C) [Compound 153]”: in test [1], the HA binding came to 0.08 and the “HA direct binding (OD)” value was found to be 0.08 OD. Moreover, the “Function blocking score (FBS)” value in test [2] was 29. In test [5], the “inhibition of cellular invasion (in words)” value was “significantly inhibited cellular invasion” and the “Invasion (% inhib.)” value came to 58 % inhib. Moreover, the “Migration (% inhib.)” value in test [3] worked out at 0 % inhib.
